Test results published in ChEMBL document CHEMBL5154826, “Discovery of the Clinical Candidate MAK683: An EED-Directed, Allosteric, and Selective PRC2 Inhibitor for the Treatment of Advanced Malignancies” (J Med Chem, 2022).
Values after ≈ are worked out from the molar mass of the structure shown.

Experiments:
[1] = Toxicity in Wistar Han rat assessed as histological changes in liver at 30 to 400 mg/kg/day, po for 15 days by Hematoxylin and eosin staining based microscopic analysis; format: organism-based; conditions: in vivo, 360 h, dose 30-400 mg/kg/day, time 15 day
[2] = target: T1, Alpha-2C adrenergic receptor (Homo sapiens, UniProt P18825); assay: Inhibition of alpha2c adrenergic receptor (unknown origin)
T1 sequence (P18825 whole entry): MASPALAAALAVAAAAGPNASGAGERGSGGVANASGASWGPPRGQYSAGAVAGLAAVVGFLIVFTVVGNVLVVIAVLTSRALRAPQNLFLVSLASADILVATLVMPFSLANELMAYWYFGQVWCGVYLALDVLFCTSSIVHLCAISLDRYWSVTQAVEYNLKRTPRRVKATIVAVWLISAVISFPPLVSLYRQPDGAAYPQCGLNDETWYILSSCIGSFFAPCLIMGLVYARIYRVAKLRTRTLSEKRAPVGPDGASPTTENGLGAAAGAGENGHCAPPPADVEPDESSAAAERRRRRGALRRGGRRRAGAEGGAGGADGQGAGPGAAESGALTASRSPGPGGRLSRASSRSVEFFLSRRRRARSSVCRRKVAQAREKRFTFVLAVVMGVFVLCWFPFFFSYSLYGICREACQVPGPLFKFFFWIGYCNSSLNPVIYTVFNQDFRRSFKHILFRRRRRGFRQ

[3] = Drug metabolism in bile duct cannulated Wistar Han rat assessed as unmodified compound recovery in bile at 3 mg/kg, iv after 8 hrs by LC-MS/MS analysis; format: ADME, organism-based; conditions: read-out: Drug metabolism
[4] = Drug metabolism in bile duct cannulated Wistar Han rat assessed as unmodified compound recovery in urine at 3 mg/kg, iv after 8 hrs by LC-MS/MS analysis; format: ADME, organism-based; conditions: read-out: Drug metabolism
[5] = Drug metabolism in human liver microsomes assessed as CYP3A4 mediated M3 metabolite formation at 1 uM preincuabted for 5 mins followed by NADPH addition and measured after 20 mins by LC-MS/MS analysis; format: ADME, Microsome; conditions: 25 min
[6] = Drug metabolism in rat liver microsomes assessed as CYP3A4 mediated M3 metabolite formation at 1 uM preincuabted for 5 mins followed by NADPH addition and measured after 20 mins by LC-MS/MS analysis; format: ADME, Microsome; conditions: 25 min
[7] = Drug metabolism in human liver hepatocytes assessed as CYP3A4 M3 metabolite formation at 1 uM preincuabted for 5 mins followed by NADPH addition and measured after 20 mins by LC-MS/MS analysis; format: ADME, cell-based, Hepatocyte
[8] = Drug metabolism in rat liver hepatocytes assessed as CYP3A4 M3 metabolite formation at 1 uM preincuabted for 5 mins followed by NADPH addition and measured after 20 mins by LC-MS/MS analysis; format: ADME, cell-based, Hepatocyte
[9] = Toxicity in Wistar Hannover rat assessed as degeneration of cortical adrenal gland at 30 to 400 mg/kg/day, po for 15 days by Hematoxylin and eosin staining based microscopic analysis; format: organism-based; conditions: in vivo, 360 h, DDE = dose-dependent effect, dose 30-400 mg/kg/day, time 15 day
[10] = Toxicity in Wistar Hannover rat assessed as infiltration of immune cells at 30 to 400 mg/kg/day, po for 15 days by Hematoxylin and eosin staining based microscopic analysis; format: organism-based; conditions: in vivo, 360 h, DDE = dose-dependent effect, dose 30-400 mg/kg/day, time 15 day
[11] = Toxicity in Wistar Han rat assessed as histological changes in lung at 30 to 400 mg/kg/day,po for 15 days by Hematoxylin and eosin staining based microscopic analysis; format: organism-based; conditions: in vivo, 360 h, dose 30-400 mg/kg/day, time 15 day
[12] = Toxicity in Wistar Han rat assessed as histological changes in kidney at 30 to 400 mg/kg/day, po for 15 days by Hematoxylin and eosin staining based microscopic analysis; format: organism-based; conditions: in vivo, 360 h, dose 30-400 mg/kg/day, time 15 day
[13] = Inhibition of PRC2 (unknown origin) assessed as reduction in H3K27 trimethylation using H3K27Me0 peptide (21 to 44 residues) as substrate by measuring SAH formation by LC-MS analysis; set-up: species or system Homo sapiens
[14] = tested on: KARPAS-422; assay: Antiproliferative activity against human KARPAS-422 cells expressing EZH2 mutant assessed as inhibition of cell growth after 14 days by beckman coulter counting method; format: functional; conditions: Homo sapiens, KARPAS-422, 336 h; time 14 day
[15] = Lipophilicity, logD of the compound at pH 7.4 by LC with tandem MS analysis; format: physicochemical; conditions: buffer, read-out: logD
[16] = High throughput solubility of the compound at pH 6.8 after 16 to 24 hrs by MS/MS analysis; format: physicochemical; conditions: buffer, time 16-24 hrs
[17] = Permeability across apical to basolateral side in human Caco-2 cells at 10 uM incubated for 2 hrs by LC/MS/MS analysis; format: ADME, cell-based; conditions: Caco-2, read-out: permeability
[18] = Efflux ratio of apparent permeability across basolateral to apical side over apical to basolateral side in human Caco-2 cells at 10 uM incubated for 2 hrs by LC/MS/MS analysis; format: ADME, cell-based
[19] = Dose normalized AUC in Sprague-Dawley rat at 2 mg/kg, po; format: ADME, organism-based; conditions: in vivo
[20] = Terminal half life in Sprague-Dawley rat at 2 mg/kg, po; format: ADME, organism-based; conditions: in vivo, read-out: beta t1/2 (converted)
[21] = Oral bioavailability in Sprague-Dawley rat at 2 mg/kg; format: ADME, organism-based; conditions: in vivo
[22] = target: Cytochrome P450 3A4 (Homo sapiens, UniProt P08684); assay: Inhibition of CYP3A4 in human liver microsomes using midazolam as substrate incubated for 10 mins in presence of NADPH by LC-MS/MS analysis; format: ADME, Microsome
Cytochrome P450 3A4, sequence (P08684 whole entry): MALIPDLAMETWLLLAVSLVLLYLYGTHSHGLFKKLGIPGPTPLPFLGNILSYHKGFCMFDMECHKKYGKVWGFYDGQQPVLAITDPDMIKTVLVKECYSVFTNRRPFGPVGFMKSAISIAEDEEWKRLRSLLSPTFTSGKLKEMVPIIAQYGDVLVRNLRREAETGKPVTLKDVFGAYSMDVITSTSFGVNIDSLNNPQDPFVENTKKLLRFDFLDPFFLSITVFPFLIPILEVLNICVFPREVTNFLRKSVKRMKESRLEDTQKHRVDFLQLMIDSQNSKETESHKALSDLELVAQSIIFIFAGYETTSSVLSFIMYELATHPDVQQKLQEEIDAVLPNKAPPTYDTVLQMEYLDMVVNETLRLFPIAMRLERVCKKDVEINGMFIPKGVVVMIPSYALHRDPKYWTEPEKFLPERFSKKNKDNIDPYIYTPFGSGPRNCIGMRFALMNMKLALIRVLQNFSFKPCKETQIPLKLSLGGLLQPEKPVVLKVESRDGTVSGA

[23] = target: Cytochrome P450 2C9 (Homo sapiens, UniProt P11712); assay: Inhibition of CYP2C9 in human liver microsomes using diclofenac as substrate incubated for 10 mins in presence of NADPH by LC-MS/MS analysis; format: ADME, Microsome
Cytochrome P450 2C9, sequence (P11712 whole entry): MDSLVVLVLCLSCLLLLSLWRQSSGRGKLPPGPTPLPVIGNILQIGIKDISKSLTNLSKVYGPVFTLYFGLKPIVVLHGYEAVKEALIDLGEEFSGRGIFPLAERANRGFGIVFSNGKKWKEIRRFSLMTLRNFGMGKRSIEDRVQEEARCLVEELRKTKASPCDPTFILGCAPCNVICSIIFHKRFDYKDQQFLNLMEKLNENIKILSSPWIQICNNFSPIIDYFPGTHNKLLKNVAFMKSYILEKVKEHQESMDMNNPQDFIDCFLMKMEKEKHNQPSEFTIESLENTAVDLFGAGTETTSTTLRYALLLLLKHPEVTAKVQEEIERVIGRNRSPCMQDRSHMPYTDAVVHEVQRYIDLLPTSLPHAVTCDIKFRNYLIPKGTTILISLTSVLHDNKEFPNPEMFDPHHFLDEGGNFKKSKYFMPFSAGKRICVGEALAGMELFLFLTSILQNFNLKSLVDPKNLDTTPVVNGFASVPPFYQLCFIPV

[24] = target: Cytochrome P450 2D6 (Homo sapiens, UniProt P10635); assay: Inhibition of CYP2D6 in human liver microsomes using bufuralol as substrate incubated for 10 mins in presence of NADPH by LC-MS/MS analysis; format: ADME, Microsome
Cytochrome P450 2D6, sequence (P10635 whole entry): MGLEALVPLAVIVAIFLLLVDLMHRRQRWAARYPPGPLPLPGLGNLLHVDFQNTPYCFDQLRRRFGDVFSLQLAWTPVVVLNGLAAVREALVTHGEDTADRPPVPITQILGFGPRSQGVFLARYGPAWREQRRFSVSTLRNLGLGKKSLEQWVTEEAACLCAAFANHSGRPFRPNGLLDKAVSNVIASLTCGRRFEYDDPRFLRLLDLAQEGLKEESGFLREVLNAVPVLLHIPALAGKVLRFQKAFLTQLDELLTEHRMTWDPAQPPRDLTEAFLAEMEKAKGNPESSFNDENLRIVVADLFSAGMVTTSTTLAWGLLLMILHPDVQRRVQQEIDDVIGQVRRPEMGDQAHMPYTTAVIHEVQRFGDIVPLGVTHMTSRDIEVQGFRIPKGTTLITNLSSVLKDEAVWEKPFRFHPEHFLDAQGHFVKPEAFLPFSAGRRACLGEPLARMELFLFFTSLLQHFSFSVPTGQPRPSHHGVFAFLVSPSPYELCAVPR

[25] = target: 3',5'-cyclic-AMP phosphodiesterase 4D (Homo sapiens, UniProt Q08499); assay: Inhibition of human Phosphodiesterase 4D
3',5'-cyclic-AMP phosphodiesterase 4D, sequence (Q08499 whole entry): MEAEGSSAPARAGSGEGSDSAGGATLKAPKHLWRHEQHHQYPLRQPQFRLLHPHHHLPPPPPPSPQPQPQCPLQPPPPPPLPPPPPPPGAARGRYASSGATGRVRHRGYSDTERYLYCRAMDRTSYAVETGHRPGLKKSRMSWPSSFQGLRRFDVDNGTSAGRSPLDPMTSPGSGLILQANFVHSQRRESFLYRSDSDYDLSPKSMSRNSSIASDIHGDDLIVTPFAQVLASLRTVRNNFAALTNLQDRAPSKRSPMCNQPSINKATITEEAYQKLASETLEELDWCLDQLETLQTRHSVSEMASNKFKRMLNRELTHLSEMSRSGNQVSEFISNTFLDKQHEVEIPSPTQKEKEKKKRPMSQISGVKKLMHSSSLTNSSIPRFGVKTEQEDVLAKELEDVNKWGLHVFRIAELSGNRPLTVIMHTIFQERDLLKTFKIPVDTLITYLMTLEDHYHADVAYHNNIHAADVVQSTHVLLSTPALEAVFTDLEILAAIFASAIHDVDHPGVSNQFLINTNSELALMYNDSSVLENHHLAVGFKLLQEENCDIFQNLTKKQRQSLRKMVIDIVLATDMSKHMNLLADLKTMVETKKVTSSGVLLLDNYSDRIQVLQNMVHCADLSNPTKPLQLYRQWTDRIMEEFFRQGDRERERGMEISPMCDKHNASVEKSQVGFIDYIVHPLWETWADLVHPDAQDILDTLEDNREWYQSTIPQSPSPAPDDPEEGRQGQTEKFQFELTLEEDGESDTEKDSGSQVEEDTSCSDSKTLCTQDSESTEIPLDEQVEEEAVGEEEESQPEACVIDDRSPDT

[26] = target: T2, Alpha-2A adrenergic receptor (Homo sapiens, UniProt P08913); assay: Antagonist activity against alpha2a adrenergic receptor (unknown origin); format: functional
T2 sequence (P08913 whole entry): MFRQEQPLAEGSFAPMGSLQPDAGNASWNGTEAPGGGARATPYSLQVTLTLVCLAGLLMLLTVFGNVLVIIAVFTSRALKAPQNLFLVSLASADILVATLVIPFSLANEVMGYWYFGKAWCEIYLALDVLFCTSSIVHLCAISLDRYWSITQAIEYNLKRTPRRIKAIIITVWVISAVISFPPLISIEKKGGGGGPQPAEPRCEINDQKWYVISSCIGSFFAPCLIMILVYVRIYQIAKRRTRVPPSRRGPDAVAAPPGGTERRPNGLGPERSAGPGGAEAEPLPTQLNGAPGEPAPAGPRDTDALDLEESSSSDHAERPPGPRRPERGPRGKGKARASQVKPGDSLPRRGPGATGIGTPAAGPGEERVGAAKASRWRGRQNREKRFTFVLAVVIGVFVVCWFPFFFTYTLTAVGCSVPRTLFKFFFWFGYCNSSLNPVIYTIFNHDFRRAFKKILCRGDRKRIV

[27] = cells; conditions: Homo sapiens, G-401, 48 h
Description: Inhibition of PRC2 in human G-401 cells assessed as H3K27 methylation status incubated for 48 hrs by ELISA method

- IC50 [2]: 14 µM
- dose excreted at 8 h [3]: 0.5%
- dose excreted at 8 h [4]: 0.9%
- Drug metabolism [5]: Metabolite_Detected
- Drug metabolism [6]: Metabolite_Detected
- Drug metabolism [7]: Metabolite_Detected
- Drug metabolism [8]: Metabolite_Detected
- IC50 [13]: 22 nM
- GI50 [14]: 80 nM
- logD [15]: 1.8
- solubility [16]: 12 µM (≈ 4.43 µg/mL)
- Papp A→B at 2 h, 10 µM [17]: 3 ×10⁻⁶ cm/s
- efflux ratio at 2 h, 10 µM [18]: 7.6
- AUC/dose [19]: 1948 nM·h
- half-life [20]: 96 min
- bioavailability [21]: 62%
- IC50 [22]: > 50 µM
- IC50 [23]: > 50 µM
- IC50 [24]: > 50 µM
- IC50 [25]: 20 µM
- IC50 [26]: 15 µM
- IC50 [27]: 220 nM
SMILES: CS(=O)(=O)c1ccc(-c2cnc(NCc3ccco3)n3cnnc23)cc1
- Activity [1]: Non-Toxic
- Activity [9]: Dde
- Activity [10]: Dde
- Activity [11]: Non-Toxic
- Activity [12]: Non-Toxic
